Experimental data reported in PubChem BioAssay AID1963965 (Molecular Pharmacology Branch, DTP, NCI, 2024).

System: 996289-038-R-J1-PDC spheroid viability
Assay: Anticancer human tumor 996289-038-R-J1-PDC patient-derived colon adenocarcinoma cell line growth inhibition [PI3K]
Settings: spheroids with HUVEC and MSC; for IC50: curve of first compound; for viability, T/C: stronger effect = lower value; active = viability on the fitted dose curve at most 10% of control; inactive = the rest
Procedure, shortened: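 Three cell types, namely tumor cells, endothelial cells and mesenchymal stem cells, formed each spheroid. Combinations with four PI3K inhibitors were screened at clinically achievable concentrations decreasing by half-log, and spheroid viability was recorded.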
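Note: spheroids exposed to compounds for seven days before viability read.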
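Throughout, for viability, T/C: luminescence used as a proxy for viable cell amount; percent viability relative to DMSO vehicle control as 100%.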

C[C@@H](NC(=O)c1ncnc(N)c1Cl)c1ncc(C(=O)Nc2cc(C(F)(F)F)c(Cl)cn2)s1 + CC(Nc1ccc2c(c1)OCCn1cc(N3C(=O)OCC3C(F)F)nc1-2)C(N)=O
> 10 µM: IC50 (second compound 0.00316 µM) | IC50 (second compound 0.01 µM) | IC50 (second compound 0.0316 µM) | IC50 (second compound 0.1 µM) | IC50 (second compound 0.316 µM) | IC50 (second compound 1 µM)
inactive: viability, T/C (second compound 0.00316 µM, first compound 0.0316 µM) 115% | viability, T/C (second compound 0.00316 µM, first compound 0.1 µM) 124% | viability, T/C (second compound 0.00316 µM, first compound 0.316 µM) 129% | viability, T/C (second compound 0.00316 µM, first compound 1 µM) 123% | viability, T/C (second compound 0.00316 µM, first compound 3.16 µM) 135% | viability, T/C (second compound 0.00316 µM, first compound 10 µM) 122% | viability, T/C (second compound 0.01 µM, first compound 0.0316 µM) 119% | viability, T/C (second compound 0.01 µM, first compound 0.1 µM) 124% | viability, T/C (second compound 0.01 µM, first compound 0.316 µM) 107% | viability, T/C (second compound 0.01 µM, first compound 1 µM) 139% | viability, T/C (second compound 0.01 µM, first compound 3.16 µM) 140% | viability, T/C (second compound 0.01 µM, first compound 10 µM) 122% | viability, T/C (second compound 0.0316 µM, first compound 0.0316 µM) 116% | viability, T/C (second compound 0.0316 µM, first compound 0.1 µM) 103% | viability, T/C (second compound 0.0316 µM, first compound 0.316 µM) 111% | viability, T/C (second compound 0.0316 µM, first compound 1 µM) 120% | viability, T/C (second compound 0.0316 µM, first compound 3.16 µM) 128% | viability, T/C (second compound 0.0316 µM, first compound 10 µM) 111% | viability, T/C (second compound 0.1 µM, first compound 0.0316 µM) 93.7% | viability, T/C (second compound 0.1 µM, first compound 0.1 µM) 93.1% | viability, T/C (second compound 0.1 µM, first compound 0.316 µM) 91.7% | viability, T/C (second compound 0.1 µM, first compound 1 µM) 119% | viability, T/C (second compound 0.1 µM, first compound 3.16 µM) 107% | viability, T/C (second compound 0.1 µM, first compound 10 µM) 110% | viability, T/C (second compound 0.316 µM, first compound 0.0316 µM) 70% | viability, T/C (second compound 0.316 µM, first compound 0.1 µM) 87.6% | viability, T/C (second compound 0.316 µM, first compound 0.316 µM) 87.2% | viability, T/C (second compound 0.316 µM, first compound 1 µM) 105% | viability, T/C (second compound 0.316 µM, first compound 3.16 µM) 109% | viability, T/C (second compound 0.316 µM, first compound 10 µM) 83.3% | viability, T/C (second compound 1 µM, first compound 0.0316 µM) 68% | viability, T/C (second compound 1 µM, first compound 0.1 µM) 78.1% | viability, T/C (second compound 1 µM, first compound 0.316 µM) 57.8% | viability, T/C (second compound 1 µM, first compound 1 µM) 81.9% | viability, T/C (second compound 1 µM, first compound 3.16 µM) 85.6% | viability, T/C (second compound 1 µM, first compound 10 µM) 65.3%
